Reference: patent US6359142B1 (priority 1998, dated 2002)

Tests used:
Phytophthora infestans = format: in vivo; settings: tomato, protective, application rate 50 g/ha, evaluation 3 days after inoculation; 0% = control, 100% = no infection

## CCc1c(C#N)oc(=O)n1S(=O)(=O)c1c(C)noc1C [Example 1, 5-cyano4-ethyl-3-(3,5-dimethyl-isoxazole-4-sulphonyl)-3H-[1,3]-oxazol-2-one]
Log p
  logP: 2.87
Phytophthora infestans
  Efficacy in %: 94%
other
  melting point: 117 to 122 °C

## CCc1[nH]c(=O)oc1C#N [5-cycano-4-ethyl-3H-[1,3]-oxazol-2-one]
Log p
  logP: 0.88
